# According to ChEMBL document CHEMBL1201862, “PubChem BioAssay data set” (2004):
# The source made the active and inactive calls.
# What was measured:
# [1] = Counterscreen for activators of the function of SWI/SNF related, matrix associated, actin dependent regulator of chromatin, subfamily a, member 2 (SMARCA2, BRM): Luminescence-based cell-based high throughput dose response assay to identify non-selective compounds using the VP16 reporter assay.; format: functional
# [2] = target: SWI/SNF-related matrix-associated actin-dependent regulator of chromatin subfamily A member 2 (Homo sapiens, UniProt P51531); test: Luminescence-based cell-based high throughput dose response assay to identify activators of the function of SWI/SNF related, matrix associated, actin dependent regulator of chromatin, subfamily a, member 2 (SMARCA2, BRM).; format: functional
# [3] = target: T1, Caspase-3 (Homo sapiens, UniProt P42574); format: functional;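 note: Dose-response selectivity test against caspase-3 for candidate inhibitors of sentrin-specific proteases (SENPs)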
# T1 sequence (P42574 whole entry): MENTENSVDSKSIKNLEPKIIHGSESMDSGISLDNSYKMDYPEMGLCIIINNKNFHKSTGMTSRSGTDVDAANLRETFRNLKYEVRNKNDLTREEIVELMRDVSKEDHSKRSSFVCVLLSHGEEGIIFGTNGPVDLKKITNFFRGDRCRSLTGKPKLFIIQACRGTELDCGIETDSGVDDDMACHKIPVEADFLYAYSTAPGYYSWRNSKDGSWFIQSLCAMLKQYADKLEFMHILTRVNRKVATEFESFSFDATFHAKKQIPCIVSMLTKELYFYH
# [4] = target: T2, Sentrin-specific protease 7 (Homo sapiens, UniProt Q9BQF6); format: functional;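 note: Luminescence-based dose-response confirmation of ultra-high-throughput screening hits, measuring inhibition of SENP7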
# T2 sequence (Q9BQF6 whole entry): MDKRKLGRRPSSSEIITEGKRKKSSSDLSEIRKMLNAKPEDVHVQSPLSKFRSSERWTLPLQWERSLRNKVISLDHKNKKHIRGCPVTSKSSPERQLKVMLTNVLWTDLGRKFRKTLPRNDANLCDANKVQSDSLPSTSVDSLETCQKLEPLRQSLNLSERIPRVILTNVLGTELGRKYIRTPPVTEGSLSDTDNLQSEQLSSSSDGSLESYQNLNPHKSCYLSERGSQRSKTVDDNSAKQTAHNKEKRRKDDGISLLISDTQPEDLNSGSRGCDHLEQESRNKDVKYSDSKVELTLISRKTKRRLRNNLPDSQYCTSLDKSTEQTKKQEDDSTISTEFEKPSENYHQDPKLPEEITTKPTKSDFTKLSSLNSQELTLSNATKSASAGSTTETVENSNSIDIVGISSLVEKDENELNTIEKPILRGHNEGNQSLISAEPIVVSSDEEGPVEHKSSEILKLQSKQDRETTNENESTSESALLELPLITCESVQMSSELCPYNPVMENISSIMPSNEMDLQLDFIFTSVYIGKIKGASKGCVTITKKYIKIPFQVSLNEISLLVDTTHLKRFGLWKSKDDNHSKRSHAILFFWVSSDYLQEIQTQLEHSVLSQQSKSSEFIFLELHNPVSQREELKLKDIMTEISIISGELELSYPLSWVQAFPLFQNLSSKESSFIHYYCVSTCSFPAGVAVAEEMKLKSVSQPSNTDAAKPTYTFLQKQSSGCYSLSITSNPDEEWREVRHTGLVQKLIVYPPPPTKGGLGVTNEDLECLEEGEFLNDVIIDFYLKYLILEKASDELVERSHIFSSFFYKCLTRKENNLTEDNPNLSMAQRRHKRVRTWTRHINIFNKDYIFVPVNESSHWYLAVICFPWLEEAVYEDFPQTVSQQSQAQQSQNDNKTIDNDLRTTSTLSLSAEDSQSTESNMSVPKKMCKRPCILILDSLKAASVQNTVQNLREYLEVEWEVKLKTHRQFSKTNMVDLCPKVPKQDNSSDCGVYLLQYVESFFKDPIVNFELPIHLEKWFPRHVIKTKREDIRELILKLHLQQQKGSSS
# [5] = target: T3, Sentrin-specific protease 6 (Homo sapiens, UniProt Q9GZR1); format: functional;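 note: Luminescence-based dose-response confirmatory assay of SENP6 inhibition, following up an ultra-high-throughput screen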
# T3 sequence (Q9GZR1 whole entry): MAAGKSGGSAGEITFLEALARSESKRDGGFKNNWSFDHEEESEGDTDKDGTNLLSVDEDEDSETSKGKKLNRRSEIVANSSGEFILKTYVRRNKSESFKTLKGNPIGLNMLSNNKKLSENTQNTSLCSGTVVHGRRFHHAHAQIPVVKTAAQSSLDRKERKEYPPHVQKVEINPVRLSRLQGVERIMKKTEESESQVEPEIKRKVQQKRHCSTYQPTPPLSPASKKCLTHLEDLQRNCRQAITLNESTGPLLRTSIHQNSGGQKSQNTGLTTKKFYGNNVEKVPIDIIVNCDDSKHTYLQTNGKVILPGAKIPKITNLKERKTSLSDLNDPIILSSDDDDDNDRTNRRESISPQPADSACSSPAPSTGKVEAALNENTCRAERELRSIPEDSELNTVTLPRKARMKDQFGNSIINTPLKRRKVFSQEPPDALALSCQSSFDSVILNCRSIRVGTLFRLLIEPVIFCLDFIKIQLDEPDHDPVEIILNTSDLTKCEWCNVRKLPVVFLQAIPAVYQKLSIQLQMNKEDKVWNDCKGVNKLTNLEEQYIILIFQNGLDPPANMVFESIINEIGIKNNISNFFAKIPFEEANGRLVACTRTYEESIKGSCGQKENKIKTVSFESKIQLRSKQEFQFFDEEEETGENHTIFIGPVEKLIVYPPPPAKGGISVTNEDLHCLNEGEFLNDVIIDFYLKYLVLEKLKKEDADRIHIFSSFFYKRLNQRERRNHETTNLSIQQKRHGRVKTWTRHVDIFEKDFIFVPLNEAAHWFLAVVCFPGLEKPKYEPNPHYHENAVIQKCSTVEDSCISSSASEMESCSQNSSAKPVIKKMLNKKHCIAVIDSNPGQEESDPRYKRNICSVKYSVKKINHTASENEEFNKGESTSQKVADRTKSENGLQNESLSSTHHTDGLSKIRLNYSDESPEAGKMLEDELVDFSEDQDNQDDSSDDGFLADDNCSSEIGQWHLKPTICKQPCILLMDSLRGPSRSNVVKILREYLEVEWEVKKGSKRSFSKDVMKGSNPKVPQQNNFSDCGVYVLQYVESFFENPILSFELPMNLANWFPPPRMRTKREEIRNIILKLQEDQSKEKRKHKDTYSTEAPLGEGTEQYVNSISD
# [6] = target: T4, Sentrin-specific protease 8 (Homo sapiens, UniProt Q96LD8); format: functional;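 note: luminescence read-out of SENP8 inhibition, dose-response confirmation following an ultra-high-throughput screen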
# T4 sequence (Q96LD8 whole entry): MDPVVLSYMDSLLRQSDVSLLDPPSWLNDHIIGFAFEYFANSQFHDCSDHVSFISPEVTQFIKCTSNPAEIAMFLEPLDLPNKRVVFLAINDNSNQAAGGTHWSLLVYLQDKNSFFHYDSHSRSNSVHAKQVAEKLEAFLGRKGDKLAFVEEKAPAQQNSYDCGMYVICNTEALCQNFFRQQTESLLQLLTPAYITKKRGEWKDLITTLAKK
# [7] = inhibitors of PGC1a acetylation in cells, dose response, cell-based, cherry-picked samples (AID 720514); format: functional;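 note: potency may reflect raised or lowered acetylation signal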
# [8] = A cytotoxicity screen of small molecule inhibitors of the PhoP region in Salmonella typhi identified in the primary screen. [Related pubchem assays: 1850, 1864, 1985 ]; format: functional
# [9] = target: Nonstructural protein 1 (Influenza A virus, UniProt Q194T2); format: functional, Influenza A virus (A/California/07/2009(H1N1))
# [10] = Luminescence Cell-Based Dose Retest to Confirm Inhibitors of Cancer Stem Cells. [Related pubchem assays (depositor defined):AID2717, AID2721]; format: functional; settings: Homo sapiens
# [11] = system: INS1; test: beta cell apoptosis inhibitors, cytokine rescue, dose response, luminescence, retest (AID 449756); format: functional, cell-based; settings: Rattus norvegicus;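 note: cell death triggered by IL-1 beta plus TNF-alpha plus IFN-gamma mixture; protective hits raise ATP signal compared with cytokine alone wells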
# [12] = target: Paired box protein Pax-8 (Homo sapiens, UniProt Q06710); test: inhibitors of PAX8-driven TPO luciferase reporter, dose response, RMG-I cells, cherry-pick (AID 687027); format: functional, cell-based;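 note: luciferase reporter driven by Pax8 target thyroperoxidase promoter measured by SteadyGlo luminescence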
# [13] = intracellular Trypanosoma cruzi inhibitors in host cells – cell-based, plate reader, cherry-pick samples, set 3, dose response (AID 651818); format: functional;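 note: compounds incubated with infected cells for about four days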
# [14] = inhibitors of HIV Env-driven cell fusion, dose response, cherry-pick (AID 652057); format: functional, cell-based
# [15] = ZM109 Env clade C HIV-1 fusion inhibitors, dose response, HeLa effector, CEM target cells, luciferase, cherry-pick (AID 652058); format: functional, cell-based
# [16] = inhibitors of clade B AD8 Env fusion, dose response, cell-based, cherry-pick (AID 652062); format: functional;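 note: luciferase signal from cell-cell fusion driven by HIV-1 clade B AD8 Env; potency is for inhibitors of fusion seen as a drop in luminescence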
# [17] = P. falciparum Dd2 growth inhibitors, dose response, SYBR Green, dry powder samples (AID 1159566); format: functional, cell-based;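 note: potency for growth inhibition with lower SYBR green DNA signal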
# [18] = HepG2 cell cytotoxicity, dose response, cytotoxicity control, plate reader, dry powder samples (AID 1159569); format: functional, cell-based;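 note: inhibitor potency with signal falling toward the positive control level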
# [19] = P. falciparum 3D7-ScDHODH growth inhibitors, dose response, SYBR Green, dry powder samples (AID 1159570); format: functional, cell-based;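 note: parasite growth measured after 72 hours of compound exposure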
# [20] = P. falciparum ATP4 D1247Y mutant growth inhibitors, dose response, NITD609-resistant line, SYBR Green, dry powder (AID 1159571); format: functional, cell-based;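 note: parasites synchronized at ring stage by sorbitol before testing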
# [21] = P. falciparum Dd2 growth inhibitors, dose response, SYBR Green, cherry-picked samples (AID 1159567); format: functional, cell-based
# Paired box protein Pax-8, sequence (Q06710 whole entry): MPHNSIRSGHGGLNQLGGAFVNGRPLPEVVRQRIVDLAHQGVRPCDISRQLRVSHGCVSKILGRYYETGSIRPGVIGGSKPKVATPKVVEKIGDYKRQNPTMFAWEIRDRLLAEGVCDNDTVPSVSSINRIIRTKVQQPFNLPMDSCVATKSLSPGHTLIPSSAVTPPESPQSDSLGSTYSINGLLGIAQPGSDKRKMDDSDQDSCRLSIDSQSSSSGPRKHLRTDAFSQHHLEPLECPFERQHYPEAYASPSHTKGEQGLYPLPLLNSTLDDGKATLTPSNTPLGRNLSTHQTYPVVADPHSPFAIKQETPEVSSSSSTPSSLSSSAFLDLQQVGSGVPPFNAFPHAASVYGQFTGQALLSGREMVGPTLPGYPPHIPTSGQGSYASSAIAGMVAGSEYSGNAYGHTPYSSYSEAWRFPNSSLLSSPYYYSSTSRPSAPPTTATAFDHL
# Nonstructural protein 1, sequence (Q194T2 whole entry): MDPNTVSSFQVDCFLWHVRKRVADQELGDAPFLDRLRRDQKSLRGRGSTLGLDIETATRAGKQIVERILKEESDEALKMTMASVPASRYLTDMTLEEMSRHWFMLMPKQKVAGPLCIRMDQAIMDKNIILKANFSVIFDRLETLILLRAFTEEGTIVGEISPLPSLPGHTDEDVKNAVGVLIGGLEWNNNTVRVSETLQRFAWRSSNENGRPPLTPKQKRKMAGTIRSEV
# SWI/SNF-related matrix-associated actin-dependent regulator of chromatin subfamily A member 2, sequence (P51531 whole entry): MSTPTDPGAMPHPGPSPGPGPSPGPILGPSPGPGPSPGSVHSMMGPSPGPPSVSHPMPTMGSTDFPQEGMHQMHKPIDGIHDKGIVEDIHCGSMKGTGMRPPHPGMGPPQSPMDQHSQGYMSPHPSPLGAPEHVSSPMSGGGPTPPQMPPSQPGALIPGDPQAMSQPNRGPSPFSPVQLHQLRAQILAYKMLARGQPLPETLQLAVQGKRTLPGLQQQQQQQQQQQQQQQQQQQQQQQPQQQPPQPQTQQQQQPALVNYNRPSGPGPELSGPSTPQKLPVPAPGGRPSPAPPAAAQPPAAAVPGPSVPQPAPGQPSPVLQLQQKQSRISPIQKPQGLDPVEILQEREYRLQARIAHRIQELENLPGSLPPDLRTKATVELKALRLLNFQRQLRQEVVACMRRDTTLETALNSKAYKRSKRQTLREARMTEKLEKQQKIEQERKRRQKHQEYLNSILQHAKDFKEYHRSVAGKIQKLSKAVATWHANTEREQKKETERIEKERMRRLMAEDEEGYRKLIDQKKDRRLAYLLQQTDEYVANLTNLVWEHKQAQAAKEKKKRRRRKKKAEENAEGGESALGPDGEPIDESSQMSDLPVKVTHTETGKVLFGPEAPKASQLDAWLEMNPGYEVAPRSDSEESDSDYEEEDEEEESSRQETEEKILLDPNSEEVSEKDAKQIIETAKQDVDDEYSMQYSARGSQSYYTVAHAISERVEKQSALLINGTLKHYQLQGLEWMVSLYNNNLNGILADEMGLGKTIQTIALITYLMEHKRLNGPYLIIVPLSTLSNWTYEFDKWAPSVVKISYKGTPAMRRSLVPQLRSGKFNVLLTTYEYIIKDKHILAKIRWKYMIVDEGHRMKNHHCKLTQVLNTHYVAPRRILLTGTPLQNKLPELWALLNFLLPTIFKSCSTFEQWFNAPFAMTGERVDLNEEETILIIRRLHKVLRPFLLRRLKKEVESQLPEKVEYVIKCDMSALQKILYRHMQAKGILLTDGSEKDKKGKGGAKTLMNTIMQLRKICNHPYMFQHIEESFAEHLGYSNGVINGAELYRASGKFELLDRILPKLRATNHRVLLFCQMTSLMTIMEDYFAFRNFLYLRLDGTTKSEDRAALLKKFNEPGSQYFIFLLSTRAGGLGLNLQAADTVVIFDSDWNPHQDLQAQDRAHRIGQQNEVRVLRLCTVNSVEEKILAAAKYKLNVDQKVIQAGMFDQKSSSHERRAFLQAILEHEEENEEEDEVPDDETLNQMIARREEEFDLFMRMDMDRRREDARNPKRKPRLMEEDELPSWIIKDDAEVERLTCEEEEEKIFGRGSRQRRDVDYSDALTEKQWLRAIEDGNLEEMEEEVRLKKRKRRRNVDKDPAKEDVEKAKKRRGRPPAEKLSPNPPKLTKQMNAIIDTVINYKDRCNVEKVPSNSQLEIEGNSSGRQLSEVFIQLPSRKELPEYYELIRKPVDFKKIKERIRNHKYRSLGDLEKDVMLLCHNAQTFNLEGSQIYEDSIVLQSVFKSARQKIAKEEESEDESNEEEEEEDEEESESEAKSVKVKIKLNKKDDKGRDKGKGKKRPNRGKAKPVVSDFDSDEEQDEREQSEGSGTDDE
compound,measurement,setting,value
COCn1c(COc2ccccc2)nc2ccccc21,EC50,[1],> 91.2 µM (inactive)
same,EC50,[2],> 91.2 µM (inactive)
COc1ccccc1CNC(=O)COc1ccccc1C(=O)c1cnn(-c2ccccc2)c1,IC50,[3],21.9 µM (active)
same,IC50,[4],11.4 µM (active)
same,IC50,[5],26.1 µM (active)
same,IC50,[6],24.3 µM (active)
CC1CCC[C@H](O)CCCCCc2cc(O)cc(O)c2C(=O)O1 (some centres undefined),AC50,[7],35.9 µM (active)
same,EC50,[8],> 50 µM (active)
CCCCNc1c([N+](=O)[O-])ccc2c1=NC1(CCCCC1)[N+]=2[O-],IC50,[9],43.8 µM (active)
C=C1C(=O)OC2C1CCC(C)C1C=CC(=O)C12C (centres undefined),EC50,[1],> 91.2 µM (inactive)
same,EC50,[2],> 91.2 µM (inactive)
COc1cc(Cl)c(NC2=CC(=O)C(=O)c3ccccc32)c(OC)c1,IC50,[3],28.8 µM (active)
same,IC50,[4],15.6 µM (active)
same,IC50,[5],9.11 µM (active)
same,AC50,[10],1.15 µM (active)
same,IC50,[6],14.5 µM (active)
same,AC50,[11],3.33 µM (active)
same,AC50,[12],4.49 µM (active)
C[C@@H]1CN([C@H](C)CO)C(=O)c2cccc(NC(=O)Nc3cccc4ccccc34)c2O[C@@H]1CN(C)Cc1ccc(C(F)(F)F)cc1,AC50,[13],6.48 µM (active)
C[C@H]1CN([C@@H](C)CO)C(=O)Cc2cc(NC(=O)Nc3ccc(C(F)(F)F)cc3)ccc2O[C@@H]1CN(C)CC1CCCCC1,AC50,[13],3.54 µM (active)
COc1ccc(S(=O)(=O)Nc2ccc3c(c2)C(=O)N([C@H](C)CO)C[C@H](C)[C@@H](CN(C)Cc2ccc(Cl)c(Cl)c2)OCCCC[C@@H](C)O3)cc1,AC50,[13],2.64 µM (active)
same,AC50,[12],10.2 µM (active)
C[C@@H]1CN([C@H](C)CO)C(=O)Cc2cc(NC(=O)Nc3ccc4c(c3)OCO4)ccc2O[C@@H]1CN(C)Cc1ccc(C(=O)Nc2ccccc2N)cc1,AC50,[13],2.04 µM (active)
C[C@H](CO)N1C[C@H](C)[C@@H](CN(C)Cc2ccc(Cl)c(Cl)c2)Oc2c(NC(=O)Nc3cccc4ccccc34)cccc2C1=O,AC50,[13],9.77 µM (active)
COc1ccc(CNC(=O)N(C)C[C@@H]2OCc3ccccc3-c3c(n(C)c4ccccc34)C(=O)N([C@H](C)CO)C[C@@H]2C)cc1,AC50,[14],< 0.235 µM (active)
same,AC50,[15],< 0.235 µM (active)
same,AC50,[16],< 0.235 µM (active)
Cc1[nH]n(-c2ccccc2)c(=O)c1N=Nc1ccc(F)cc1,IC50,[9],84.7 µM (active)
COc1ccc(-c2cnc3c(c2)C(=O)N([C@H](C)CO)C[C@@H](C)[C@@H](CN(C)C(=O)Nc2c(C)noc2C)O3)cc1,AC50,[7],12.2 µM (active)
CC(C)(C)[S@@+]([O-])N1Cc2cc(C(=O)NCCN3CCCCC3)nc(-c3cccc(-c4ccc(C#N)cc4)c3)c2[C@H]1CCO,AC50,[17],2.37 µM (active)
same,AC50,[18],63.2 µM (active)
same,AC50,[19],3.54 µM (active)
same,AC50,[20],2.9 µM (active)
same,AC50,[21],2.79 µM (active)
C[C@@H]1CN([C@@H](C)CO)S(=O)(=O)c2ccc(/C=C/c3ccccc3)cc2O[C@H]1CN(C)Cc1cccnc1,AC50,[17],1.63 µM (active)
same,AC50,[18],56.2 µM (active)
same,AC50,[19],1.6 µM (active)
same,AC50,[20],2.15 µM (active)
same,AC50,[21],1.93 µM (active)
COc1ccc(S(=O)(=O)N(C)C[C@@H]2Oc3cc(-c4ccccc4OC)ccc3S(=O)(=O)N([C@H](C)CO)C[C@H]2C)cc1,AC50,[17],0.653 µM (active)
same,AC50,[18],> 100 µM (inactive)
same,AC50,[19],0.894 µM (active)
same,AC50,[20],0.766 µM (active)
same,AC50,[21],1.12 µM (active)
OC[C@@H]1CC[C@@H]2O[C@H](CCc3ccc(-c4ccccc4)cc3)[C@H](n3cc(-c4ccccc4)nn3)C[C@@H]2O1,AC50,[17],0.555 µM (active)
same,AC50,[18],> 100 µM (inactive)
same,AC50,[19],1.38 µM (active)
same,AC50,[20],0.885 µM (active)
same,AC50,[21],1.34 µM (active)
C/C=C/c1ccc2c(c1)[C@H]1[C@H](CCN1C(=O)c1cccc(F)c1)[C@H](CO)N2,AC50,[17],1.05 µM (active)
same,AC50,[18],> 100 µM (inactive)
same,AC50,[19],1.46 µM (active)
same,AC50,[20],1.64 µM (active)
same,AC50,[21],1.54 µM (active)
